# Entries after “also recorded” stand apart in the source; their conditions may differ.
# How the values were obtained:
# OCD-symptoms [1] = assay: Case study: treatment of a patient with a severe form of OCD; type: in vivo, man; conditions: earlier treatment of the same patient(s) with anti-androgenic drugs, before the GnRH-analogue
# Description: The GnRH-analogue triptorelin is available in a pharmaceutical preparation (Decapeptyl® Depot). In the use of this preparation, an injection is administered containing triptorelin embonate in a dose corresponding to 3.75 mg triptorelin. Injections with this dose are given intramuscularly. They should be repeated every fourth week from the first injection. […] A then person was referred to a psychiatric specialist clinic from another qualified psychiatrist for evaluation and treatment of a severe condition of OCD. […] The situation when the patient came to the clinic was that they had sickness pension since more than ten years. They lived alone in a small apartment which they hardly ever left. Obsessions and compulsive rituals occupied most of their time. They repeated against their will meaningless strings of words silently during several hours every day. They felt they had to read the newspaper according to certain ritual patterns; if they did anything wrong, they had to start again from the beginning. Sometimes, it took them the whole day to read the newspaper. […] Among other things, they placed their books so that the covers were strictly oriented along north-south lines. Their contacts with other persons were highly restraint and mainly limited to some relatives. […] The clinical diagnosis was that they suffered from a very serious form of OCD. […]
# [2] = tested on: symptoms of androgenic hyperactivity; assay: Case study: treatment of the patient's symptoms of androgenic hyperactivity; type: in vivo, man; conditions: same patient, before triptorelin
# Description: An endocrinological investigation was performed, based upon their symptoms of androgenic hyperactivity.
# [3] = tested on: obsessive-compulsive neurosis (nowadays called obsessive-compulsive disorder, OCD); conditions: cited from earlier work
# OCD-symptoms [4] = assay: Case study: treatment of a patient with a severe form of OCD; type: in vivo, man
# Description: The GnRH-analogue triptorelin is available in a pharmaceutical preparation (Decapeptyl® Depot). In the use of this preparation, an injection is administered containing triptorelin embonate in a dose corresponding to 3.75 mg triptorelin. Injections with this dose are given intramuscularly. They should be repeated every fourth week from the first injection.
# A detailed case study of the treatment of a patient with a severe form of OCD is disclosed in the following, as supporting evidence of the effect of the method.
# A then person was referred to a psychiatric specialist clinic from another qualified psychiatrist for evaluation and treatment of a severe condition of OCD.
# The situation when the patient came to the clinic was that they had sickness pension since more than ten years. They lived alone in a small apartment which they hardly ever left. Obsessions and compulsive rituals occupied most of their time. They repeated against their will meaningless strings of words silently during several hours every day. They felt they had to read the newspaper according to certain ritual patterns; if they did anything wrong, they had to start again from the beginning. Sometimes, it took them the whole day to read the newspaper. […] Among other things, they placed their books so that the covers were strictly oriented along north-south lines. Their contacts with other persons were highly restraint and mainly limited to some relatives.
# The clinical diagnosis was that they suffered from a very serious form of OCD. They were also found to be intelligent without any signs of any other mental illness or personality disorder. Thus, it was a clearly defined case of OCD.
# During long periods of time the patient had been treated with the drugs which presently are considered to have the best effect against OCD. In the treatment of the patient they had also been given supportive psychotherapy.
# In order to overcome this, treatment with the long-acting GnRH-analogue triptorelin (Decapeptyl® Depot) was given every fourth week as deep intramuscular depot injections with a dose corresponding to 3.75 mg triptorelin in each injection.
# [5] = after another two months (four months in all), 3.75 mg intramuscular every fourth week
compound,measurement,setting,value
CC(=O)O[C@]1(C(C)=O)CC[C@H]2[C@@H]3C=C(Cl)C4=CC(=O)[C@@H]5C[C@@H]5[C@]4(C)[C@H]3CC[C@@]21C [cyproterone acetate],effect on OCD,OCD-symptoms [1],without success; also recorded: without any major improvement; also recorded: without any obvious effect on their OCD
same,effect on symptoms of androgenic hyperactivity,[2],without any significant effects
same,effect in treatment of obsessive-compulsive neurosis,"[3]; a few patients, Casas et al. 1986",effective
same,effect on OCD,[3]; later investigations by other researchers,failed to demonstrate any effect
triptorelin,effect on OCD-symptoms,OCD-symptoms [4]; [5],dramatically better
same,obsessive thoughts,OCD-symptoms [4]; [5],all obsessive thoughts had disappeared
same,recovery from very severe form of OCD,OCD-symptoms [4]; after three months of treatment,substantially recovered
same,effect on OCD-symptoms,"OCD-symptoms [4]; after two months treatment, 3.75 mg intramuscular every fourth week",began to feel better
same,effect on OCD-symptoms,"OCD-symptoms [4]; initially during treatment, 3.75 mg triptorelin deep intramuscular depot injection every fourth week",accentuation of the patients OCD-symptoms

# Reference: EP1094830B1, “USE OF COMPOSITION COMPRISING AT LEAST ONE SUBSTANCE WITHIN THE GROUP GnRH-ANALOGUES FOR TREATMENT OF OBSESSIVE-COMPULSIVE DISORDER (OCD)” (Läkartjänster I Västsverige AB, priority 1998, dated 2005)
